The values below come from patent US20190071416A1, “COMPOUNDS FOR TREATMENT OF CANCER AND EPIGENETICS” (Agency For Science, Technology and Research, priority 2015, published 2019).

The target in the assay is T1, SMYD3 (Homo sapiens, UniProt Q9H7B4).
T1 sequence (Q9H7B4 1-428): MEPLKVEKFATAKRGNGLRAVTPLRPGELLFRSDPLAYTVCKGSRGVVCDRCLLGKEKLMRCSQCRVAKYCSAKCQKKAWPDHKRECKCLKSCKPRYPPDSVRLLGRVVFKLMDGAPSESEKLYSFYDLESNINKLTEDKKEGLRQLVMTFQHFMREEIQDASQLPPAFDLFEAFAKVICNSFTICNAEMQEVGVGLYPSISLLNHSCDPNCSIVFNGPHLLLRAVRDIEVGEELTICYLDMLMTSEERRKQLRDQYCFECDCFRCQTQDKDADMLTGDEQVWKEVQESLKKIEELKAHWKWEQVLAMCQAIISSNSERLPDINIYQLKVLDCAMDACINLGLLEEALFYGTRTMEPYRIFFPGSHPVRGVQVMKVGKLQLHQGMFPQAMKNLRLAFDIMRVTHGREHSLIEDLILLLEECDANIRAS
As to the kind of experiment: SMYD3 biochemical assay (MTase-Glo, MAP3K2 peptide substrate). As to conditions: Table 3; MTase assay, MAP3K2 peptide substrate; read-out: IC50. The method in brief: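 Methylation of MAP3K2 peptide (10 µM final) with SAM (1.0 µM final) by SMYD3, 30 min at room temperature. SAH formed was enzymatically converted to ATP and detected as luminescence with MTase-Glo reagents; IC50 by non-linear regression.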
Broadly, the IC50 is the point on the concentration scale where inhibition reaches its midpoint. Turning to `CCCOC(=O)N1CCN(C(=O)c2ccc3c(Cl)cc(-c4cnn(CC(N)=O)c4)nc3c2)CC1` [B249, Propyl 4-(2-(1-(2-amino-2-oxoethyl)-1H-pyrazol-4-yl)-4-chloroquinoline-7-carbonyl)piperazine-1-carboxylate], the half-maximal inhibitory concentration (IC50) amounted to 190 nM.

As to `CCCOC(=O)N1CCN(C(=O)c2ccc3c(Cl)cc(-c4cn[nH]c4C(F)(F)F)nc3c2)CC1` [B250, Propyl 4-(4-chloro-2-(5-(trifluoromethyl)-1H-pyrazol-4-yl)quinoline-7-carbonyl)piperazine-1-carboxylate], the IC50 amounted to 4900 nM.

As to `CCCOC(=O)N1CCN(C(=O)c2ccc3c(Cl)cc(-c4cc[nH]c4)nc3c2)C[C@H]1C` [B251, Propyl (R)-4-(4-chloro-2-(1H-pyrrol-3-yl)quinoline-7-carbonyl)-2-methylpiperazine-1-carboxylate], the IC50 stood at 43 nM.

Take `CCCOC(=O)N1CCN(C(=O)c2ccc3c(Cl)cc(-c4ccn(S(C)(=O)=O)c4)nc3c2)CC1` [B252, Propyl 4-(4-chloro-2-(1-(methylsulfonyl)-1H-pyrrol-3-yl)quinoline-7-carbonyl)piperazine-1-carboxylate]: the IC50 came to 520 nM.

In the case of `CCCOC(=O)N1CCN(C(=O)c2ccc3c(Cl)cc(-c4cc(F)c(C(N)=O)c(F)c4)nc3c2)CC1` [B253, Propyl 4-(2-(4-carbamoyl-3,5-difluorophenyl)-4-chloroquinoline-7-carbonyl)piperazine-1-carboxylate], the IC50 was determined as 490 nM.

As for `CCCOC(=O)N1CCN(C(=O)c2ccc3c(Cl)cc(-c4cc[nH]c4)nc3c2)[C@@H](C)C1` [B254, Propyl (S)-4-(4-chloro-2-(1H-pyrrol-3-yl)quinoline-7-carbonyl)-3-methylpiperazine-1-carboxylate], the IC50 is 54 nM.

Take `CCCOC(=O)N1CCN(C(=O)c2ccc3c(Cl)cc(-c4ccc(CO)cc4)nc3c2)CC1` [B255, Propyl 4-(4-chloro-2-(4-(hydroxymethyl)phenyl)quinoline-7-carbonyl)piperazine-1-carboxylate]: the concentration for half-maximal inhibition (IC50) was found to be 28 nM.

In the case of `CCCOC(=O)N1CCN(C(=O)c2ccc3c(Cl)cc(-c4ccc(COCC)cc4)nc3c2)CC1` [B256, Propyl 4-(4-chloro-2-(4-(ethoxymethyl)phenyl)quinoline-7-carbonyl)piperazine-1-carboxylate], the half-inhibitory concentration (IC50) was determined as 500 nM.

`CCCOC(=O)N1CCN(C(=O)c2ccc3c(Cl)cc(-c4ccc(CO)c(F)c4)nc3c2)CC1` [B257, Propyl 4-(4-chloro-2-(3-fluoro-4-(hydroxymethyl)phenyl)quinoline-7-carbonyl)piperazine-1-carboxylate]: the 50% inhibitory concentration (IC50) was determined as 150 nM.

With `CCCOC(=O)N1CCN(C(=O)c2ccc3c(Cl)cc(-c4cc(F)c(CN)c(F)c4)nc3c2)CC1` [B258, Propyl 4-(2-(4-(aminomethyl)-3,5-difluorophenyl)-4-chloroquinoline-7-carbonyl)piperazine-1-carboxylate], the IC50 is 850 nM.

Regarding `C[C@@H]1CN(C(=O)c2ccc3c(Cl)cc(C4CC4)nc3c2)CCN1C(=O)OCCF` [B259, 2-Fluoroethyl (R)-4-(4-chloro-2-cyclopropylquinoline-7-carbonyl)-2-methylpiperazine-1-carboxylate], the IC50 was 2600 nM.

`C[C@H]1CN(C(=O)OCCF)CCN1C(=O)c1ccc2c(Cl)cc(C3CC3)nc2c1` [B260, 2-Fluoroethyl (S)-4-(4-chloro-2-cyclopropylquinoline-7-carbonyl)-3-methylpiperazine-1-carboxylate]: the half-maximal inhibitory concentration (IC50) was determined as 4900 nM.

Take `Cn1cc(-c2cc(Cl)c3ccc(C(=O)N4CCN(C(=O)OCCF)CC4)cc3n2)cn1` [B261, 2-Fluoroethyl 4-(4-chloro-2-(1-methyl-1H-pyrazol-4-yl)quinoline-7-carbonyl)piperazine-1-carboxylate]: the IC50 was determined as 2700 nM.

For `CCCOC(=O)N1CCN(C(=O)c2ccc3c(Cl)c(F)c(-c4ccn(C)c4)nc3c2)CC1` [B262, Propyl 4-(4-chloro-3-fluoro-2-(1-methyl-1H-pyrrol-3-yl)quinoline-7-carbonyl)piperazine-1-carboxylate], the half-maximal inhibitory concentration (IC50) worked out at 390 nM.

For the molecule `CCCOC(=O)N1CCN(C(=O)c2ccc3c(Cl)cc(C4(F)CC4)nc3c2)CC1` [B263, Propyl 4-(4-chloro-2-(1-fluorocyclopropyl)quinoline-7-carbonyl)piperazine-1-carboxylate], the 50% inhibitory concentration (IC50) is 13900 nM.

Turning to `CCCOC(=O)N1CCN(C(=O)c2ccc3c(Cl)cc(-c4ccc(CN=[N+]=[N-])cc4)nc3c2)CC1` [B264, Propyl 4-(2-(4-(azidomethyl)phenyl)-4-chloroquinoline-7-carbonyl)piperazine-1-carboxylate], the half-inhibitory concentration (IC50) came out at 84 nM.

As to `CCCOC(=O)N1CCN(C(=O)c2ccc3c(Cl)cc(-c4ccc(C(C)(C)O)cc4)nc3c2)C[C@H]1C` [B265, Propyl (R)-4-(4-chloro-2-(4-(2-hydroxypropan-2-yl)phenyl)quinoline-7-carbonyl)-2-methylpiperazine-1-carboxylate], the half-inhibitory concentration (IC50) is 67 nM.

For `CC(C)(O)c1ccc(-c2cc(Cl)c3ccc(C(=O)N4CCN(C(=O)OCCF)CC4)cc3n2)cc1` [B266, 2-Fluoroethyl 4-(4-chloro-2-(4-(2-hydroxypropan-2-yl)phenyl)quinoline-7-carbonyl)piperazine-1-carboxylate], the IC50 is 3300 nM.

Take `C[C@@H]1CN(C(=O)c2ccc3c(Cl)cc(-c4ccc(C(C)(C)O)cc4)nc3c2)CCN1C(=O)OCCF` [B267, 2-Fluoroethyl (R)-4-(4-chloro-2-(4-(2-hydroxypropan-2-yl)phenyl)quinoline-7-carbonyl)-2-methylpiperazine-1-carboxylate]: the IC50 amounted to 150 nM.

`CCCOC(=O)N1CCN(C(=O)c2ccc3c(Cl)cc(-c4ccn(C)c4)nc3c2)C[C@H]1C` [B268, Propyl (R)-4-(4-chloro-2-(1-methyl-1H-pyrrol-3-yl)quinoline-7-carbonyl)-2-methylpiperazine-1-carboxylate]: the half-inhibitory concentration (IC50) stood at 17 nM.

For `CCCOC(=O)N1CCN(C(=O)c2ccc3c(Cl)cc(-c4ccc(C(C)(C)O)c(F)c4)nc3c2)C[C@H]1C` [B269, Propyl (R)-4-(4-chloro-2-(3-fluoro-4-(2-hydroxypropan-2-yl)phenyl)quinoline-7-carbonyl)-2-methylpiperazine-1-carboxylate], the IC50 was 170 nM.

As to `CCCOC(=O)N1CCN(C(=O)c2ccc3c(Cl)cc(-c4ccc(C(C)(C)O)cc4)nc3c2)C[C@@H]1C` [B270, Propyl (S)-4-(4-chloro-2-(4-(2-hydroxypropan-2-yl)phenyl)quinoline-7-carbonyl)-2-methylpiperazine-1-carboxylate], the half-inhibitory concentration (IC50) worked out at 16 nM.

For the molecule `CCCOC(=O)N1CCN(C(=O)c2ccc3c(Cl)cc(-c4cnn(C5COC5)c4)nc3c2)CC1` [B271, Propyl 4-(4-chloro-2-(1-(oxetan-3-yl)-1H-pyrazol-4-yl)quinoline-7-carbonyl)piperazine-1-carboxylate], the concentration for half-maximal inhibition (IC50) was 34 nM.

Consider `CCCOC(=O)N1CCN(C(=O)c2ccc3c(Cl)cc(-c4cnn(C5COC5)c4)nc3c2)C[C@H]1C` [B272, Propyl (R)-4-(4-chloro-2-(1-(oxetan-3-yl)-1H-pyrazol-4-yl)quinoline-7-carbonyl)-2-methylpiperazine-1-carboxylate], for which the IC50 was 16 nM.

Take `CCCOC(=O)N1CCN(C(=O)c2ccc3c(Cl)cc(-c4cnn(C5COC5)c4)nc3c2)C[C@@H]1C` [B273, Propyl (S)-4-(4-chloro-2-(1-(oxetan-3-yl)-1H-pyrazol-4-yl)quinoline-7-carbonyl)-2-methylpiperazine-1-carboxylate]: the IC50 worked out at 19 nM.

For the molecule `CCCOC(=O)N1CCN(C(=O)c2ccc3c(Cl)cc(-c4cnn(CC(F)(F)F)c4)nc3c2)CC1` [B274, Propyl 4-(4-chloro-2-(1-(2,2,2-trifluoroethyl)-1H-pyrazol-4-yl)quinoline-7-carbonyl)piperazine-1-carboxylate], the IC50 came to 210 nM.

As to `CCCOC(=O)N1CCN(C(=O)c2ccc3c(Cl)cc(-c4cnn(CC(F)(F)F)c4)nc3c2)C[C@H]1C` [B275, Propyl (R)-4-(4-chloro-2-(1-(2,2,2-trifluoroethyl)-1H-pyrazol-4-yl)quinoline-7-carbonyl)-2-methylpiperazine-1-carboxylate], the half-maximal inhibitory concentration (IC50) is 34 nM.

As for `CCCOC(=O)N1CCN(C(=O)c2ccc3c(Cl)cc(-c4cnn(CC(F)(F)F)c4)nc3c2)C[C@@H]1C` [B276, Propyl (S)-4-(4-chloro-2-(1-(2,2,2-trifluoroethyl)-1H-pyrazol-4-yl)quinoline-7-carbonyl)-2-methylpiperazine-1-carboxylate], the 50% inhibitory concentration (IC50) is 22 nM.

Turning to `CCCOC(=O)N1CCN(C(=O)c2ccc3c(Cl)cc(-c4cnn(C5CCCC5)c4)nc3c2)CC1` [B277, Propyl 4-(4-chloro-2-(1-cyclopentyl-1H-pyrazol-4-yl)quinoline-7-carbonyl)piperazine-1-carboxylate], the IC50 came to 60 nM.

For `CCCOC(=O)N1CCN(C(=O)c2ccc3c(Cl)cc(-c4cnn(C5CCCC5)c4)nc3c2)C[C@H]1C` [B278, Propyl (R)-4-(4-chloro-2-(1-cyclopentyl-1H-pyrazol-4-yl)quinoline-7-carbonyl)-2-methylpiperazine-1-carboxylate], the IC50 was determined as 22 nM.

Turning to `CCCOC(=O)N1CCN(C(=O)c2ccc3c(Cl)cc(-c4cnn(C5CCCC5)c4)nc3c2)C[C@@H]1C` [B279, Propyl (S)-4-(4-chloro-2-(1-cyclopentyl-1H-pyrazol-4-yl)quinoline-7-carbonyl)-2-methylpiperazine-1-carboxylate], the concentration for half-maximal inhibition (IC50) came out at 20 nM.
